Results reported in article PMC7270110, “Labeled oxytocin administered via the intranasal route reaches the brain in rhesus macaques” (Nature Communications, 2020).
Read-outs that look alike come from different tables or passages of the source.

Columns and labels:
[1] = Plasma concentration of d5OT by LC-MS/MS after IN or IV d5OT; format: in vivo, rhesus macaques (Macaca mulatta); details: for level at 1 h: rhesus monkey, plasma, 60 min, present study
Method: (§1) The six monkeys were dosed once a week, for 4 consecutive weeks, with each DOSE–ROUTE condition of d5OT (40 IU IN, 40 IU IV, 80 IU IN, or 80 IU IV). Each DOSE–ROUTE condition was assigned using a Latin square randomization (Table 4). Sessions were separated by at least 6 days. During each session, CSF (750 µl) and blood (5 ml) samples were drawn immediately prior to (T = 0) and following (T = 60 and 120 min) each administration of d5OT.
Monkeys were divided into three groups, each with two monkeys; each group received the following in a terminal study at the 5th week: Group 1 (Monkeys ID# 1 and ID# 5) received 40 IU of d5OT IN, Group 2 received 80 IU of d5OT IN (Monkeys ID# 2 and ID# 4) and Group 3 received 80 IU of d5OT IV (Monkeys ID# 3 and ID# 6). Animals were perfused on average, 140 ± 7 (mean ± SD) min after d5OT administration (range = 135–149 min) (Table 4). Plasma and CSF were drawn just before administration of d5OT, at the midpoint between d5OT administration and perfusion (~60 min post-d5OT administration), and just before perfusion.
(§2) Chemicals: An unlabeled standard for d0OT and deuterated standard for d5OT were purchased from Sigma-Aldrich (St. Louis, MO); d10OT was purchased for use as an internal standard through a custom order from Cayman Chemical (Ann Arbor, MI). All other reagents were commercially available, and we purchased LC or MS grade chemicals when available. Plasma and CSF sample preparation for LC–MS/MS analysis. CSF and plasma samples were collected as described above. […]
(§3) Solid-phase extraction (SPE) columns (Strata-X-Drug B, 60 mg/6 ml, Phenomenex, Torrance, CA) were conditioned prior to use by adding 2 ml of methanol, followed by 2 ml of water, and 2 ml of 0.2 M ammonium acetate (pH 3.0) in water; each was allowed to flow through by gravity before the next was added. […] After a 15 min incubation at 4 °C, plates were filtered into microtiter plates (Shimadzu, Kyoto, Japan) using a positive pressure manifold (8 min at 5 psi, followed by 15 s at 15 psi; Biotage, Uppsala, Sweden), and analyzed. […]

[2] = Plasma concentration of endogenous d0OT by LC-MS/MS; format: in vivo, rhesus macaques (Macaca mulatta); details: LLOQ 10 pg/ml, MDL 4 pg/ml
Method: as §1
as §2, with “analysis.” for “analysis. CSF and plasma samples were collected as described above.”
as §3

With `CC[C@H](C)[C@@H]1NC(=O)[C@H](Cc2ccc(O)cc2)NC(=O)[C@@H](N)CSSC[C@@H](C(=O)N2CCC[C@H]2C(=O)N[C@@H](CC(C)C)C(=O)NCC(N)=O)NC(=O)[C@H](CC(N)=O)NC(=O)[C@H](CCC(N)=O)NC1=O` [d5OT] the “Concentrations of d5OT in the plasma” value ([1]; after 40 IU IN, all concentrations, LOQ 100 pg/ml) was “below the level of quantification”, the level at 1 h ([1]; 80 IU IN condition, read-out: Plasma d5OT) was 0.284 ± 0.288 ng/mL and the level at 1 h ([1]; IV condition, read-out: Mean plasma concentration of d5OT) was 1.99 ± 0.476 ng/mL.
With `CC[C@H](C)[C@@H]1NC(=O)[C@H](Cc2ccc(O)cc2)NC(=O)[C@@H](N)CSSC[C@@H](C(=O)N2CCC[C@H]2C(=O)N[C@@H](CC(C)C)C(=O)NCC(N)=O)NC(=O)[C@H](CC(N)=O)NC(=O)[C@H](CCC(N)=O)NC1=O` [OT, oxytocin] the d0OT in plasma [2] was “not detected”.
